Experiment [1] relates to Jurkat human lymphocytes. The experiment in a line: Suppression of TNF-α-induced uropod formation in lymphocytes. The experiment is classed as cell-based. The note with it: FIG. 3 legend; TNF-α 10 ng/mL. As to the method: (§1) FIG. 3. Suppression of TNF-α and PHA-induced human lymphocyte activation by Apoptozole 1. (A) Jurkat human lymphocytes are treated with various concentrations of Apoptozole 1 for 1 h and then are activated by incubation with 10 ng/mL of TNF-α for 1 h to induce uropod formation. The formed uropod is determined by microscopic analysis of groups of cells. (B) Lymphocytes treated with TNF-α (10 ng/mL) for 48 h are incubated with various concentrations of Apoptozole 1 for 24 h. Cell number is measured by CyQuant kit. (C) Jurkat human lymphocytes are incubated with various concentrations of Apoptozole 1 for 1 h and then with 10 μg/mL PHA for 1 h to induce cell aggregation. Cell aggregates are counted in 40× fields of view determined randomly.
(§2) Lymphocyte activation leads to the formation of a uropod in the rear pole during cell polarization and cell proliferation. Jurkat lymphocytes are incubated with various concentrations of Apoptozoles for 1 h and the treated cells are then activated by treatment with TNF-α for 1 h. Apoptozoles reduce the uropod formation induced by TNF-α by 45% in comparison with cells treated only with TNF-α. […]
Jurkat human lymphocytes are seeded in 6-well plates at a density of 10^3 cells/mL in 5% FBS in order to reduce the propensity for spontaneous uropod formation. […] The formed uropod is determined by microscopic analysis of groups of cells.

The subject of experiment [2] is Jurkat human lymphocytes. The experiment in a line: Suppression of PHA-induced homotypic aggregation in lymphocytes. The experiment is classed as cell-based. The settings on record: FIG. 3 legend; PHA 10 μg/mL. As to the method:
as §1, §2
For homotypic aggregation studies, lymphocytes are seeded in 6-well plates at a density of 2×10^4 cells/mL and treated with various concentrations (0-100 nM) of Az for 1 h. […] Cell aggregates are counted in 40× fields of view determined randomly.

Experiment [3] concerns ΔF508-CFTR in CFPAC-1 cells. The experiment in a line: Detection of ΔF508-CFTR expression on the cell membrane (immunostaining without permeabilization). The note with it: 100 nM, 24 h. The class given is cell-based, human. On the procedure:
FIG. 4. Intracellular trafficking of misfolded ΔF508-CFTR by Apoptozole 1. (A) Capan-1 cells expressing normal CFTR display intense fluorescence in a characteristic ring structure that is indicative of cell membrane labeling. (B) CFPAC-1 cells expressing ΔF508-CFTR show little or no fluorescent signal at the cell surface, due to degradation ΔF508-CFTR by interacting with Hsc70 in the proteosome pathway. […] Immunostaining for CFTR is carried out using standard methods without cell permeabilization to allow CFTR detection on the cell surface.
The other embodiment of the present invention provides translocation methods of mutant CFTR (cystic fibrosis transmembrane conductance regulator) to treat cystic fibrosis. Hsc70 assists the degradation of misfolded proteins in the ER (Nature 1996, 381, 571-579 Cell 1998, 92, 351-366 Science 1999, 286, 1888-1893). Cystic fibrosis is a disease caused by removal of mutant CFTR in the ER. The most common mutation of CFTR is the deletion of phenylalanine-508 in CFRT (ΔF508-CFRT). […] When Capan-1 cells are immunostained with anti-CFTR antibody, intense fluorescence is observed in the cell membrane. […]
Capan-1 and CFPAC-1 cells are grown on Permanox slides (Fisher Scientific) for 24 h and treated with 1 mM 4-PBA and 100 nM Az for 24 h. […] The slides were analyzed using a fluorescence microscope (Nikon Eclipse TE2000).

With `COc1ccc(-c2nc(-c3cc(C(F)(F)F)cc(C(F)(F)F)c3)n(Cc3ccc(C(N)=O)cc3)c2-c2ccc(OC)cc2)cc1` [Apoptozole 1, 4-2-[3,5-bis(trifluoromethyl)phenyl]-4,5-bis(4-methoxphenyl)imidazol-1-yl-methyl-benzamide], the “TNF-α-induced human lymphocyte activation” value with Jurkat human lymphocytes [1] is “Suppression”. For the same compound, the “PHA-induced human lymphocyte activation” value in the experiment on Jurkat human lymphocytes [2] was “Suppression”. Also, in experiment [3], the “expression of ΔF508-CFTR on the cell membrane” value was “inhibits Hsc70-mediated degradation of the ΔF508-CFTR”.

The values above are taken from US8163791B2, “Imidazole derivatives that induce apoptosis and their therapeutic uses” (Industry-Academic Cooperation Foundation, Yonsei University, priority 2007, dated 2012).
